Reference: ChEMBL document CHEMBL4342450, “Antitumor Activity of Ohmyungsamycin A through the Regulation of the Skp2-p27 Axis and MCM4 in Human Colorectal Cancer Cells” (J Nat Prod, 2020)

Legend:
MRC5 = test: Antiproliferative activity against human MRC5 cells after 72 hrs by sulforhodamine B assay; assay type: cell-based; conditions: MRC5, 72 h
SK-HEP1 = test: Antiproliferative activity against human SKHEP1 cells after 72 hrs by sulforhodamine B assay; assay type: functional, cell-based; conditions: SK-HEP1, 72 h
HCT-116 = test: Antiproliferative activity against human HCT116 cells after 72 hrs by sulforhodamine B assay; assay type: functional, cell-based; conditions: HCT-116, 72 h
MDA-MB-231 = test: Antiproliferative activity against human MDA-MB-231 cells after 72 hrs by sulforhodamine B assay; assay type: functional, cell-based; conditions: MDA-MB-231, 72 h
SNU-638 = test: Antiproliferative activity against human SNU638 cells after 72 hrs by sulforhodamine B assay; assay type: functional, cell-based; conditions: SNU-638, 72 h
A549 = test: Antiproliferative activity against human A549 cells after 72 hrs by sulforhodamine B assay; assay type: functional, cell-based; conditions: A549, 72 h

IC50 (SK-HEP1): 780 nM
IC50 (HCT-116): 520 nM
IC50 (MDA-MB-231): 3850 nM
IC50 (SNU-638): 820 nM
IC50 (A549): 480 nM
SMILES: COc1cc([C@@H]2c3cc4c(cc3[C@@H](O[C@@H]3O[C@@H]5CO[C@@H](C)O[C@H]5[C@H](O)[C@H]3O)[C@H]3COC(=O)[C@H]23)OCO4)cc(OC)c1O [ETOPOSIDE]
IC50 (MRC5): 11200 nM
